Columns and labels:
Format in all cases: physicochemical
[1] = Evaluation of liquid crystallinity (hot stage, polarization microscope); parameters: key: A case of having liquid crystallinity was evaluated as A; a case of having no liquid crystallinity was evaluated as B; conditions: heated on a hot stage
Method: The respective compounds (the compounds A-1 to A-11 and the compounds B-1 and B-2) were heated on a hot stage and observed with a polarization microscope, and the phase transition temperature was measured to evaluate the presence or absence of the liquid crystallinity. A case of having liquid crystallinity was evaluated as A, and a case of having no liquid crystallinity was evaluated as B. The results are shown in Table 1.
Since the compound A-8 has melting points of 200° C. or higher and undergoes a polymerization reaction during heating, liquid crystallinity could not be evaluated.

[2] = Measurement of Δn (refractive index anisotropy), wedge-shaped liquid crystal cell; conditions: 550 nm, 30° C. or lower limit temperature of nematic phase +0 to 10° C.; some compounds extrapolated from 1/2 mixture with L-1-1
Method: The Δn of each of the compounds (the compounds A-1 to A-11 and the compounds B-1 and B-2), which are the compounds to be measured, was measured by a method using a wedge-shaped liquid crystal cell described on page 202 in the Liquid crystal handbook (edited by the liquid crystal handbook editorial board, published by Maruzen Co., Ltd., 2000). Δn was defined as a measured value at a wavelength of 550 nm at 30° C. or the lower limit temperature of the nematic phase +0° C. to 10° C. In a case of a compound which is liable to crystallize or a compound having no liquid crystallinity, evaluation was carried out using a mixture thereof with the other liquid crystal compound, and Δn was estimated from the extrapolated value of the measured value thereof. The following L-1-1 was used as the other liquid crystal compound. As the above mixture, a mixture obtained by mixing at a ratio of the compound to be measured/the L-1-1=1/2 (in terms of mass ratio) was used.
A case where Δn was 0.40 or more was evaluated as A, a case where Δn was 0.35 or more and less than 0.40 was evaluated as B, a case where Δn was 0.30 or more and less than 0.35 was evaluated as C, and a case where Δn was less than 0.30 was evaluated as D. The results are shown in Table 1.

[3] = Evaluation of light resistance of optically anisotropic layer (Super Xenon Weather Meter); conditions: rate of change in Re of cured layer (25 parts compound, 75 parts L-1), 5 million lx, 50 hours, 63° C., 50% RH, oxygen-blocking
Method: (§1) As shown below, the light resistance and the durability of the optically anisotropic layer produced using the composition containing each of the compounds A-1 to A-11 and the compounds B-1 and B-2 were evaluated.
(§2) A coating liquid having the following composition was prepared and applied by spin-coating, onto a rubbing-treated glass attached with an alignment film. Each composition was irradiated with ultraviolet rays of 300 mJ/cm^2 through a filter that cuts light having a wavelength of 350 nm or less on a hot plate which had been heated to a temperature at which a nematic phase is shown, whereby an optically anisotropic layer for a light resistance/durability test was produced.
(§3) The polymerizable liquid crystal compound L-1 is a mixture obtained by mixing at a
(§4) ratio of the following L-1-1/L-1-2/L-1-3=84/14/2 (in terms of mass ratio).
The produced optically anisotropic layers for light resistance/durability tests were irradiated with light using a Super Xenon Weather Meter SX75 manufactured by Suga Test Instruments Co., Ltd. Using KU-1000100 manufactured by King Seisakusho Co., Ltd. as a UV cut filter, a light resistance test was carried out by irradiation with 5 million lx of light for 50 hours under an oxygen-blocking condition. The temperature of the specimen to be tested (the temperature inside the test device) was set to 63° C. The relative humidity in the test device was 50% RH.
The Re of the optically anisotropic layer before and after the light resistance test was measured, the light resistance in a case where the rate of change in Re described below was less than 10% was evaluated as A, and the light resistance in a case where the rate of change in Re was 10% or more was evaluated as B. The smaller the rate of change in Re, the more excellent the light resistance.
(§5) Rate of change in Re (%)=[100×{|(Re after test)−(Re before test)|}/(Re before test)]
(§6) Re was measured with Axoscan manufactured by Axometrics Inc. at a wavelength of 550 nm, and the measurement temperature was set to room temperature.

[4] = Evaluation of durability of optically anisotropic layer (moisture-heat resistance test); conditions: rate of change in Re of cured layer (25 parts compound, 75 parts L-1), 136 hours at 100° C., humidity 95%
Method: as §1, §2, §3, §4, §5, §6
The produced optically anisotropic layer was allowed to be left for 136 hours at 100° C. and a humidity of 95%, whereby a moisture-heat resistance test was carried out. The rate of change in Re before and after the durability test was evaluated, the durability in a case where the rate of change in Re was less than 10% was evaluated as A, and the durability in a case where the rate of change in Re was 10% or more was evaluated as B. The smaller the rate of change in Re, the more excellent the durability.

[5] = Evaluation of solubility in cyclopentanone; conditions: precipitation concentration in cyclopentanone at 25° C.
Method: The solubility of each of the compounds (the compounds A-1 to A-11 and the compounds B-1 and B-2) in cyclopentanone was evaluated.

**Q.** With `C=CC(=O)OCCCCOc1ccc(C(=O)Nc2ccc(C#Cc3ccc4cc(OCCCCOC(=O)C=C)ccc4c3)cc2C(F)(F)F)cc1` [Compound B-2, reference compound] as the molecule, how does the Liquid crystallinity [1] read?
**A.** Its Liquid crystallinity is “A”.

**Q.** What about the Δn [2] of the same molecule?
**A.** The Δn was “C (a case where Δn was 0.30 or more and less than 0.35 was evaluated as C)”.

**Q.** And the Light resistance [3]?
**A.** Its Light resistance is “A (the light resistance in a case where the rate of change in Re described below was less than 10% was evaluated as A)”.

**Q.** And the Durability [4]?
**A.** Its Durability is “A (the durability in a case where the rate of change in Re was less than 10% was evaluated as A)”.

**Q.** What about the Solubility [5] of the same molecule?
**A.** Its Solubility is “A (the solubility in a case where the precipitation concentration was 5% by mass or more was evaluated as A)”.
